Measurements from patent US20090023801A1, “INHIBITORS OF BETA AMYLOID PRODUCTION” (Wyeth, priority 2007, published 2009).
Read-outs that look alike come from different tables or passages of the source.

Columns and labels:
Format in all cases: cell-based
[1] = system: Aβ40; assay: Aβ-lowering MSD electrochemiluminescent assay of conditioned media from CHO cells expressing human APP (Aβ40); conditions: MSD electrochemiluminescent assay, hAPP-REPNL751 CHO cells; read-out: Aβ40 EC50 for inhibition of Aβ40
Procedure: (§1) The activity of compounds in lowering the generation of Aβ40 and Aβ42, the most abundant forms of beta amyloid, from APP (amyloid precursor protein) was measured in an electrochemiluminescent (ECL) assay of conditioned media from chinese hamster ovary (CHO) cells stably expressing the human amyloid precursor protein (APP) reporter construct, hAPP-REPNL751 (Sughir, R. et al.; J. Biolog. Chem (1992) 267: 25602-25608). Aβ peptides were secreted at high levels into cell culture media by cells carrying the human APP transgene; compounds were tested for their capacity to modulate this production. The Aβ peptide in the conditioned medium was quantitated by a sandwich immunoassay with the MSD ECL detection system. Cell metabolism was measured using a 3-(4,5-dimethylthiazol-2-yl)-5-(3-carboxymethoxypheny)-2-(4-sulfophenyl)-2H-tetrazolium, inner salt (MTS) salt kit (which measures the mitochondrial activity of cells by the bioreduction of Owen's reagent). This assay consists of the following protocol:
(§2) 1. hAPP-REPNL751CHO cells were seeded into 96 well plates and incubated until about 60-70% confluence.
(§3) 2. Medium was removed, cells were washed, and fresh serum-free medium (Ultraculture) was put on cells.
(§4) 3. Compounds were diluted and then added to the cell medium.
(§5) 4. Cells were incubated, with compounds, for indicated times.
(§6) 5. Streptavidin coated Meso Scale Discover (MSD) plates (MSD standard MULTI-ARRAY® 96 plate, cat.# P11SA-1) were washed […] with TTBS (Tris-buffered saline, the TWEEN® 20 reagent).
(§7) 6. 20 μL conditioned medium were removed from the cells and added to the TTBS prewashed MSD plates.
(§8) 7. Standard curve dilutions of synthetic Aβ40 and Aβ42 were prepared and added to the MSD plates.
(§9) 8. A reagent mix was prepared in 1% MSD Blocker A (appropriate concentration of biotinylated 6E10 antibody, detection antibodies to Aβ40, Aβ42, and MSD ruthinylated tag antibody).
(§10) 9. 20 μL reagent mix was distributed to sample plate.
(§11) 10. Plates were incubated with shaking overnight at 4° C.
(§12) 11. Plates were washed 3× with TTBS.
(§13) 12. 150 μL read buffer was added per well (MSD® Read Buffer T, cat#R92TC-2, made 1× with distilled water).
(§14) 13. Plates were read in a MSD® plate reader within 2 hours.
(§15) Assays were accepted or rejected based upon specific performance criteria, including regression coefficient of standard curve, adequate signal to noise ratio, sample signals lying within the range of the standard curve, etc.: the specific parameters were established for each tissue type prior to performing an assay, and were included in the full analytical procedure.
(§16) Plate data from both assays (MTS and MSD® ELISA) were transferred into a Microsoft EXCEL® spreadsheet to determine the toxicity, and inhibition caused by the compounds. Standard curves of Aβ were generated using LSW™ toolbar Hill slope model 42, with 1/y weighting (general sigmoidal curve with Hill slope, a to d; y=(a−d)/(1+(x/c)̂b)+d). Inhibition data were expressed as a percent of the average of the Aβ values in the vehicle treated wells (all values are background subtracted), using LSW™ toolbar Hill Slope model 68 (ligand-receptor binding/sigmoidal, with Hill slope and Bmax to 0; y=Bmax*(1−(x̂n/(K̂n+x̂n))), after raw values were translated/transformed into absolute Aβ values utilizing the standard curve generated as described above (e.g. back calculate absolute Aβ values from the raw values utilizing standard curve). Onboard controls to verify assay performance were checked to assure that amyloid is within linear detection range of the assay, that cells were expressing correctly, and that the MSD itself was performing according to quality control (QC) standards.
(§17) % Inhibition>50% may be considered a positive response or an interesting result in this assay; EC50 determination were determined.
(§18) The beta amyloid inhibitory activity of compounds of formula (I) was determined using the MSD ECL assay. Inhibition of Notch processing was measured using the stable transfection reporter assay See, Table 1 below.

[2] = system: Aβ42; assay: Aβ-lowering MSD electrochemiluminescent assay of conditioned media from CHO cells expressing human APP (Aβ42); conditions: MSD electrochemiluminescent assay, hAPP-REPNL751 CHO cells; read-out: Aβ42 EC50 for inhibition of Aβ42
Procedure: as §1, §2, §3, §4, §5, §6, §7, §8, §9, §10, §11, §12, §13, §14, §15, §16, §17, §18

[3] = system: Notch; assay: Stable transfection Notch reporter assay (HES1-SEAP, P8H6 CHO-K1 cells); conditions: stable transfection Notch reporter assay, 48 hours, read-out: Notch EC50 for inhibition of Notch
Source text: A concern with compounds that lower beta amyloid synthesis by targeting the γ-secretase enzyme is that this enzyme also is involved in the cleavage of other substrates besides APP especially the Notch substrate. […] Thus, a selectivity of APP cleavage over Notch cleavage is desired in order to avoid G.I. side effects. The activity of compounds in cleaving Notch can be measured in a whole cell functional Notch assay. This is an assay to determine the effects of compounds on the S3 (γ-secretase like) processing of Notch. […] SEAP transactivation is then detected by luminescent assay. The assay consists of the following protocol:
• (i) Materials: The P8H6 inducible stable cell line was derived from T-REX™ CHO-K1, stably expressing Tet repressor, Notch (pZX1) and HES1-SEAP (pZX2) reporter constructs. A Wallac 1450 Victor™ Luminescence Counter was used to measure luminescent signal. All other materials and reagents were of highest quality available and were all from commercial sources.
(ii) Construct Description: • pZX1: Mouse Notch1 with deleted extracellular domain cloned at Hind III/Xho I sites of pcDNA5/TO vector: Ampicillin Resistance for bacteria, hygromycin resistance for cells. • pZX2: Mouse HES1 promoter together with reporter gene SEAP cloned at Not I/Apa I sites of pcDNA3.1 with deletion of CMV promoter.
(iii) Procedure: • 1. P8H6 cells were grown in Ham's F12 complete growth media containing 10% FBS (reduced tetracycline), 2 mM of L-glutamine, 1 mg/mL of hygromycin, 1 mg/mL of the GENETICIN® antibiotic, 10 μg/mL of Blasticidin and 1% Penicillin-Streptomycin were supplemented with doxycline with final induction concentration of 0.2 μg/mL. The cells were seeded in 96-well tissue culture plate at 8000/well. • 2. Test compounds in 0.2% DMSO/25 mM HEPES buffer were diluted at final working concentration of 20 μM, 6.7 μM, 2.2 μM, 741 nM, 247 nM, 82 nM, 27 nM, 9 nM and 3 nM. Diluted compounds then were added to P8H6 cells in 96-well tissue culture plates. For vehicle samples, the same volume of 0.2% DMSO/25 mM HEPES buffer was added. • 3. Cells were incubated at 37° C., 5% CO2 for 48 hours. • 4. SEAP levels in the conditioned media were assessed using the Clontech GREATESCAPE™ SEAP Chemiluminescence detection kit according to the manufacturer's instruction. Briefly, 15 μL of conditioned media were mixed with 45 μL of the dilution buffer and incubated at 65° C. for 45 minutes. After cooling, assay buffer was added and the sample was incubated with the CSPD® substrate. • 5. Luminescence was measured in a Wallac 1450 VICTOR™ luminescence counter.
EC50 was the compound concentration that was estimated to provide a 50% reduction of maximum response in Notch induced SEAP levels. An EC50 from a given assay may only be used for averaging if it has met the following criteria: • 1. There is a lower dose in the assay which gives a % Notch Activity>60% (bracketing lower dose). • 2. There is a higher dose in the assay which gives a % Notch Activity<30% (bracketing higher dose), and the maximum inhibition is reached (e.g., a given compound might achieve 80% inhibition (% Notch activity is about 20%) over several doses, and therefore 20% would be considered the maximum inhibition.
Data were analyzed in Microsoft EXCEL® format. EC50 was calculated by LSW using sigmoidal inhibition from B0 to nsb model (model 59). Each assay plate contained a dose response curve for the reference compound 5-chloro-N-[(1S,2R)-2-ethyl-4,4,4-trifluoro-1-(hydroxymethyl)butyl]thiophene-2-sulfonamide. This compound is discussed in International Patent Publication No. WO 2004/092155. The following data is not shown in that publication.
as §18

| Structure (SMILES) | EC50 [1] [nM] | EC50 [2] [nM] | EC50 [3] [nM] | EC50 ([3]; CHO-K1) [nM] |
| --- | --- | --- | --- | --- |
| O=S(=O)(N[C@@H](CO)[C@@H](c1cc(F)cc(F)c1)C(F)(F)F)c1ccc(Cl)s1.O=S(=O)(N[C@H](CO)[C@H](c1cc(F)cc(F)c1)C(F)(F)F)c1ccc(Cl)s1 (relative stereo) [Example 7, 5-Chloro-N-[(1S*,2S*)-2-(3,5-difluorophenyl)-3,3,3-trifluoro-1-(hydroxymethyl)propyl]thiophene-2-sulfonamide and 5-chloro-N-[(1R*,2R*)-2-(3,5-difluorophenyl)-3,3,3-trifluoro-1-(hydroxymethyl)propyl]thiophene-2-sulfonamide] | 7300 | 8750 | > 20000 | – |
| O=S(=O)(N[C@H](CO)[C@@H](c1cc(F)cc(F)c1)C(F)(F)F)c1ccc(Cl)s1 (relative stereo) [Example 8, 5-Chloro-N-[(1S*,2R*)-2-(3,5-difluorophenyl)-3,3,3-trifluoro-1-(hydroxymethyl)propyl]thiophene-2-sulfonamide] | 83 | 80 | – | 2780 |
| O=S(=O)(N[C@H](CO)[C@@H](c1ccc(F)cc1)C(F)(F)F)c1ccc(Cl)s1 (relative stereo) [Example 9, 5-Chloro-N-[(1S*,2R*)-3,3,3-trifluoro-2-(4-fluorophenyl)-1-(hydroxymethyl)propyl]thiophene-2-sulfonamide] | 187 | 178 | – | > 20000 |
| O=S(=O)(N[C@H](CO)[C@H](c1ccc(F)cc1)C(F)(F)F)c1ccc(Cl)s1 (relative stereo) [Example 10, 5-Chloro-N-[(1S*,2S*)-3,3,3-trifluoro-2-(4-fluorophenyl)-1-(hydroxymethyl)propyl]thiophene-2-sulfonamide] | 1880 | 1570 | – | > 20000 |
| O=S(=O)(N[C@H](CO)[C@H](c1cccc(F)c1)C(F)(F)F)c1ccc(Cl)s1 (relative stereo) [Example 11, 5-Chloro-N-[(1S*,2S*)-3,3,3-trifluoro-2-(3-fluorophenyl)-1-(hydroxymethyl)propyl]thiophene-2-sulfonamide] | 4060 | 3380 | – | > 20000 |
| O=S(=O)(N[C@H](CO)[C@@H](c1cccc(F)c1)C(F)(F)F)c1ccc(Cl)s1 (relative stereo) [Example 12, 5-Chloro-N-[(1S*,2R*)-3,3,3-trifluoro-2-(3-fluorophenyl)-1-(hydroxymethyl)propyl]thiophene-2-sulfonamide] | 98 | 98 | – | 1740 |
| O=S(=O)(N[C@H](CO)[C@@H](c1ccc(Cl)cc1)C(F)(F)F)c1ccc(Cl)s1 (relative stereo) [Example 13, 5-Chloro-N-[(1S*,2R*)-2-(4-chlorophenyl)-3,3,3-trifluoro-1-(hydroxymethyl)propyl]thiophene-2-sulfonamide] | 316 | 396 | – | 7600 |
| O=S(=O)(N[C@H](CO)[C@H](c1ccc(Cl)cc1)C(F)(F)F)c1ccc(Cl)s1 (relative stereo) [Example 14, 5-Chloro-N-[(1S*,2S*)-2-(4-chlorophenyl)-3,3,3-trifluoro-1-(hydroxymethyl)propyl]thiophene-2-sulfonamide] | 2360 | 2280 | – | > 20000 |
| O=S(=O)(N[C@@H](CO)[C@@H](c1ccccc1)C(F)(F)F)c1ccc(Cl)s1 (stereo in doubt) [Example 2, 5-Chloro-N-[(1R* ,2R*)-3,3,3-trifluoro-1-(hydroxymethyl)-2-phenylpropyl]thiophene-2-sulfonamide] | > 15000 | > 15000 | – | – |
| O=S(=O)(N[C@@H](CO)[C@H](c1ccccc1)C(F)(F)F)c1ccc(Cl)s1 [Example 3, 5-Chloro-N-[(1R,2S)-3,3,3-trifluoro-1-(hydroxymethyl)-2-phenylpropyl]thiophene-2-sulfonamide] | > 15000 | > 15000 | – | – |
